Reference: patent US12534465B2, “5H-pyrrolo[3,2-d]pyrimidine-2,4-diamino compounds and antibody conjugates thereof” (SUTRO BIOPHARMA, INC., priority 2019, dated 2026)

Tests used:
Format in all cases: cell-based
human TLR8 = target: T1, human TLR8 (Homo sapiens, UniProt Q9NR97); experiment: HEK293-humanTLR8 SEAP reporter assay (Example 8); conditions: HEK293-hTLR8 SEAP reporter cells, 24 hrs
T1 construct: host or cells: HEK293
T1 sequence (Q9NR97 27-1041): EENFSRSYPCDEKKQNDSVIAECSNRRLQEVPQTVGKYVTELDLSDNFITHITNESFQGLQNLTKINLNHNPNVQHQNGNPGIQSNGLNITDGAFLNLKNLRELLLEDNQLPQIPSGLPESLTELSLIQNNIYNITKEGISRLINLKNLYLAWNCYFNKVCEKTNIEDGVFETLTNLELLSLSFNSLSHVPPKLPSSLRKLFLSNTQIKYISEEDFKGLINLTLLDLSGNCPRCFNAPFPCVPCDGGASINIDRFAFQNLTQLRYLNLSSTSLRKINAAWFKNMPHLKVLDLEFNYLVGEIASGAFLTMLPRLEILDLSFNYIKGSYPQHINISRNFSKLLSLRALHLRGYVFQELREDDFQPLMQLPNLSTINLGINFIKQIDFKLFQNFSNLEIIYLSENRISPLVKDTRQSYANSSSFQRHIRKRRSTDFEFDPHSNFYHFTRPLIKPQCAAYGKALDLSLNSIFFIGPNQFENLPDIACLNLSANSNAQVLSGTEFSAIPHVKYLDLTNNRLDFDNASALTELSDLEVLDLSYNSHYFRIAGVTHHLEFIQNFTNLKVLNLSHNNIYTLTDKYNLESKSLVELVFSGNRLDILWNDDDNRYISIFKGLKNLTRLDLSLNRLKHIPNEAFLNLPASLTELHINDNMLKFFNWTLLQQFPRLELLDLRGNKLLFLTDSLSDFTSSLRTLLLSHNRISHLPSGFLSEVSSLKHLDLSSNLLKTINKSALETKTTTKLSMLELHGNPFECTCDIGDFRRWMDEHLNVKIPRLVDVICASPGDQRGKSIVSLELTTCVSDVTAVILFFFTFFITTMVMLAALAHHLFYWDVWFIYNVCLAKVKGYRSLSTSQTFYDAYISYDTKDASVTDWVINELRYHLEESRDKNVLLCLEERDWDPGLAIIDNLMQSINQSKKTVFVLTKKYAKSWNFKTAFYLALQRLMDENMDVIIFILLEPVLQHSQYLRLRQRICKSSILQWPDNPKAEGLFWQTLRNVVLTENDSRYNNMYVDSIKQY
Procedure: (§1) In this example, the in vitro activity of compounds to activate human TLR7 (or human TLR8 or mouse TLR7) pathway was evaluated on HEK293 reporter cells transfected with human TLR7 (or human TLR8 or mouse TLR7) and an inducible SEAP (secreted embryonic alkaline phosphatase) reporter gene. The SEAP reporter gene is placed under the control of the IFN-β minimal promoter fused to five NF-κB and AP-1-binding sites. Stimulation with a TLR7 agonist activates NF-κB and AP-1 which induces the production of SEAP. Levels of SEAP were determined by HEK-Blue Detection medium.
(§2) The in vitro activity of compounds on TLR7 (human and mouse) and TLR8 (human only) reporter cell lines was assessed as follows. 5-(2-methoxy-4-(piperazin-1-ylmethyl)benzyl)-N4-pentyl-5H-pyrrolo[3,2-d]pyrimidine-2,4-diamine (Compound 1) is a compound used for comparison and has the structure shown below:
(§3) HEK293-humanTLR7 (hTLR7), HEK293-mouseTLR7 (mTLR7) and HEK293-humanTLR8 (hTLR8) reporter cell lines were purchased from Invivogen and cell lines were maintained in the manufacturer's recommended culture medium with required supplemental antibiotics. On the day of assay, the cells were harvested with Accutase and counted by the Vi-CELL Cell Viability Analyzers. Cells were resuspended in HEK blue detection medium and a total of 10,000 cells were seeded in each well of a 384-well flat bottom plate. Serial dilutions of test compounds (1:4 serial dilution starting from 5 μM) were added into treatment wells and assay plates were cultured at 37° C. in a CO2 incubator for 24 hrs. The plates were then read by spectrophotometry at 640 nm. Data was fitted with non-linear regression analysis, using a log(inhibitor) vs. response-variable slope, 3-parameter fit with GraphPad Prism. There result was reported in Table 1 as EC50 (the midpoint of the curve, or concentration at which 50% of the maximum effect was observed).

mouse TLR7 = target: T2, mouse TLR7 (Mus musculus, UniProt P58681); experiment: HEK293-mouseTLR7 SEAP reporter assay (Example 8); conditions: HEK293-mTLR7 SEAP reporter cells, 24 hrs
T2 construct: host or cells: HEK293
T2 sequence (P58681 27-1050): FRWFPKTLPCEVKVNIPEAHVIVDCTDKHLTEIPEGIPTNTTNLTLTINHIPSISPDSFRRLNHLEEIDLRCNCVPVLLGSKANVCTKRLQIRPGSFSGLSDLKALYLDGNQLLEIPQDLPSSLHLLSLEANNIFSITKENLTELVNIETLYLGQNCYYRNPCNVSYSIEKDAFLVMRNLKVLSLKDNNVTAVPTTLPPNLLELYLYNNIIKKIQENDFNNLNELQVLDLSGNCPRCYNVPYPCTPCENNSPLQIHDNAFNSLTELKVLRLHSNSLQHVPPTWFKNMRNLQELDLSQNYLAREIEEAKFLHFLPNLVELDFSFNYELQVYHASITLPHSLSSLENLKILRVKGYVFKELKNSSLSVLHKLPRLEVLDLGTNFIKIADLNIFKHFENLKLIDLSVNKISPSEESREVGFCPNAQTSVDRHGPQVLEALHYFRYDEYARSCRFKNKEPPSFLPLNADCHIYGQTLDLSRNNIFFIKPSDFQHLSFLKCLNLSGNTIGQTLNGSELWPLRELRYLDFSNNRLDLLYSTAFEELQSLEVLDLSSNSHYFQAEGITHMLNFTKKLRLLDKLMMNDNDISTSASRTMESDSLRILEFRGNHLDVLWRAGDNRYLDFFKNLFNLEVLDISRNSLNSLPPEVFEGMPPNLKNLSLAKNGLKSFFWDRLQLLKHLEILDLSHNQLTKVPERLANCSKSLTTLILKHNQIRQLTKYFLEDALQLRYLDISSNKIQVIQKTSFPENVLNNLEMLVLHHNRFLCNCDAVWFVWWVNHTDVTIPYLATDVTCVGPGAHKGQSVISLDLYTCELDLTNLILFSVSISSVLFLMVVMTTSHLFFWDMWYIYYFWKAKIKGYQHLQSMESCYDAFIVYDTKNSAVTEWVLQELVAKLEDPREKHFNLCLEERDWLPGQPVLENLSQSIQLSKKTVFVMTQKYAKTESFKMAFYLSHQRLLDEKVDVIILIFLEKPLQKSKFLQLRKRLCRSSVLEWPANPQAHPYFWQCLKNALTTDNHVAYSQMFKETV
Procedure: as §1, §2, §3

human TLR7 = target: T3, human TLR7 (Homo sapiens, UniProt Q9NYK1); experiment: HEK293-humanTLR7 SEAP reporter assay (Example 8); conditions: HEK293-hTLR7 SEAP reporter cells, 24 hrs
T3 construct: host or cells: HEK293
T3 sequence (Q9NYK1 27-1049): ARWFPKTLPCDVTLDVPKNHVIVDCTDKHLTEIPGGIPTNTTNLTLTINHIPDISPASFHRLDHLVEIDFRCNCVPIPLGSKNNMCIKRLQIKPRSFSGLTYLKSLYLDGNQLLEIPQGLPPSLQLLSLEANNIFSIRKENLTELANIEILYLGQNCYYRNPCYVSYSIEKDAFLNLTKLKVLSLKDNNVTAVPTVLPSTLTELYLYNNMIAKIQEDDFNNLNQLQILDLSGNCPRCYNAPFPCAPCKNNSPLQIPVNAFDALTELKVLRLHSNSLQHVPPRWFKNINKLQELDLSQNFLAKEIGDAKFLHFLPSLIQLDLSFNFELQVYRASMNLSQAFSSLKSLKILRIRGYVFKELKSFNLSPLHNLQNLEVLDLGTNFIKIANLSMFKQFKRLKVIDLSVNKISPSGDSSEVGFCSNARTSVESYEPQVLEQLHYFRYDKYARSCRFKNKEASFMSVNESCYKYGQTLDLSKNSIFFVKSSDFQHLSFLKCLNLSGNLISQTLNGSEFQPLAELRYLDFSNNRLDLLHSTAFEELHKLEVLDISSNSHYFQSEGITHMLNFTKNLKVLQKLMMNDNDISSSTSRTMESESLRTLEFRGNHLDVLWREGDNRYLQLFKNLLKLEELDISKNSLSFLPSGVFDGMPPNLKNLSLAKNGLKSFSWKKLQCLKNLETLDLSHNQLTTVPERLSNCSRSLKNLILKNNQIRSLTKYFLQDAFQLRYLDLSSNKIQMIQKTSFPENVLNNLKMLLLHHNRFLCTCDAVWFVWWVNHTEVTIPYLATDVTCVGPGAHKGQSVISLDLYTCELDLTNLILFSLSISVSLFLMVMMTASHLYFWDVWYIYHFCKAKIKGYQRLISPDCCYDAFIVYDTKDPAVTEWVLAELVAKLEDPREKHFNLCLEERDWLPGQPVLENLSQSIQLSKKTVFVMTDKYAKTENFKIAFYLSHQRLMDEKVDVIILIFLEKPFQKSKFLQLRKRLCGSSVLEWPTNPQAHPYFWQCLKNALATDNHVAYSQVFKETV
Procedure: as §1, §2, §3

EC50 (human TLR8) | EC50 (mouse TLR7) | EC50 (human TLR7) | SMILES
> 5000 nM | 6.7 nM | 0.1 nM | CCCCCNc1nc(N)nc2ccn(Cc3ccc(CN4CC5(C4)CN(C(=O)OC(C)(C)C)CCO5)cc3OC)c12 [Compound 1.7, tert-butyl 2-[[4-[[2-amino-4-(pentylamino)pyrrolo[3,2-d]pyrimidin-5-yl]methyl]-3-methoxy-phenyl]methyl]-5-oxa-2,8-diazaspiro[3.5]nonane-8-carboxylate]
> 5000 nM |  | 1010 nM | CNC1CN(Cc2ccc(Cn3ccc4nc(N)nc(NCc5nocc5C)c43)c(OC)c2)C1 [Compound 5]
> 5000 nM | > 5000 nM | > 5000 nM | CNC1CN(Cc2ccc(Cn3ccc4nc(N)nc(NCc5cc(C)on5)c43)c(OC)c2)C1 [Compound 6, 5-(2-methoxy-4-((3-(methylamino)azetidin-1-yl)methyl)benzyl)-N4-((5-methylisoxazol-3-yl)methyl)-5H-pyrrolo[3,2-d]pyrimidine-2,4-diamine]
374 nM | 2.7 nM | 0.5 nM | CCCCCNc1nc(N)nc2ccn(Cc3ccc(CN4CC(N)C4)cc3OC)c12 [Compound 13, 5-(4-((3-aminoazetidin-1-yl)methyl)-2-methoxybenzyl)-N4-pentyl-5H-pyrrolo[3,2-d]pyrimidine-2,4-diamine]
> 5000 nM | 112 nM | 48.8 nM | CCCCCNc1nc(N)nc2ccn(Cc3ccc(CN4CCC5(CCNCC5)CC4)cc3OC)c12 [compound 7]
> 5000 nM | 17.6 nM | 16.5 nM | CCCCCNc1nc(N)nc2ccn(Cc3ccc(CN4CC5(CCNCC5)C4)cc3OC)c12 [compound 8]
1140 nM | 16.2 nM | 13.4 nM | CCCCCNc1nc(N)nc2ccn(Cc3ccc(CN4CC5(CNC5)C4)cc3OC)c12 [compound 9]
> 5000 nM | 222 nM | 92.3 nM | CCCCCNc1nc(N)nc2ccn(Cc3ccc(CN4CC(C5CCNCC5)C4)cc3OC)c12 [compound 11]
> 5000 nM |  | 370 nM | CCCCCNc1nc(N)nc2ccn(Cc3ccc(CN4CCC(c5nnc6n5CCNC6)CC4)cc3OC)c12 [compound 12]
> 5000 nM | 322 nM | 108 nM | CCCCCNc1nc(N)nc2ccn(Cc3ccc(CN4CC5CCCC(C4)NC5)cc3OC)c12 (stereo not shown) [compound 14]
> 5000 nM | 24.6 nM | 4.8 nM | CCCCCNc1nc(N)nc2ccn(Cc3ccc(CN4CC5CCC4CN5)cc3OC)c12 (stereo not shown) [compound 15]
